According to patent publication US20160367578A1, “METHODS AND COMPOSITIONS FOR ERADICATING LEUKEMIC CELLS” (priority 2013, published 2016):
Entries after “also recorded” stand apart in the source; their conditions may differ. Where two headings read alike, the source gives them in different places.

Columns and labels:
MLL-AF9 cells = assay: Viability of MLL-AF9 cells exposed to CBX for 16 hours (7AAD FACS); assay type: cell-based, mouse; set-up: MLL-AF9 cell death: dose or concentration left out as unconfirmed
Description: Cells were distinguished by Cd45.1/CD45.2 expression and cell viability was determined by % of 7AAD-negative cells, in FACS analysis. (*p<0.01).
(§1) We then asked how blockage of gap junction intercellular communication affects AML cells, without additional treatment. […] In order to exclude the possibility of clone specific effects, we have repeated the experiments with a different MLL-AF9 clone, generated independently, and also included HoxA9/Meis1 AML cells that represent a different type of AML.

[1] = test system: primary bone marrow leukocytes or primary peripheral blood leukocytes; assay: Viability of normal primary leukocytes exposed to CBX, alone or in 1:1 mixtures (7AAD FACS); assay type: cell-based, mouse; set-up: sensitivity of wild type primary leukocytes from BM or PB: dose or concentration left out as unconfirmed; conditions: for effect on normal counterparts in 1:1 mixtures with different AML cells: MLL-AF9 clone A/B or HoxA9/Meis1 mixtures
Description: Cells were distinguished by Cd45.1/CD45.2 expression and cell viability was determined by % of 7AAD-negative cells, in FACS analysis.
as §1

[2] = test system: bone marrow primary leukocytes (normal stem cells); assay: Colony formation assay (CFU-C) on bone marrow primary leukocytes; assay type: cell-based, mouse; conditions: increasing concentrations of carbenoxolone
primary MLL-AF9 cells = assay: Differentiation assay, Gr-1 and Mac-1 expression in primary MLL-AF9 cells; assay type: cell-based, mouse; set-up: dose or concentration left out as unconfirmed; conditions: CBX for 16 hours; for differentiation of MLL-AF9 cells: Gr-1/Mac-1 expression
Description: Cell viability was determined by % of 7AAD-negative cells, in FACS analysis. (*p<0.01).
MLL-AF9 AML cells are undifferentiated myeloid progenitors that express both Gr-1 and Mac-1 antigens, whereas mature myeloid cells express either Gr-1 (granulocytes) or Mac-1 (macrophages).

[3] = test system: freshly isolated primary human leukocytes; assay: Neutrophil differentiation (CD66b+/CD14-) by FACS in primary human leukocytes; assay type: cell-based; conditions: 16 hours
[4] = test system: human leukemic cancer stem and progenitor cells (THP1, HL60, U937); assay: Colony formation assay (CFU-C) on human leukemic cell lines; assay type: cell-based
[5] = test system: freshly isolated primary non-leukemic normal human leukocytes; assay: Colony formation assay (CFU-C) on normal human leukocytes; assay type: cell-based
[6] = test system: normal bone marrow mononuclear cells (BM-MNC); assay: Normal bone marrow mononuclear cells in 1:1 mixture with MLL-AF9 cells after CBX; assay type: cell-based, mouse; conditions: CBX vs PBS
[7] = test system: Mac1 in human leukemic cell lines U937, HL60 and THP1; assay: Myelo-marker flow cytometry in CBX-treated human leukemic cell lines; assay type: cell-based; conditions: human leukemias, CBX 16 h
Source text: FIGS. 34A-34D are bar graphs quantifying myelo-markers CD11b (FIG. 34A), CD14+ (FIG. 34B), CD66b+ (FIG. 34C), and CD66+/CD14+ (FIG. 34D) in CBX-treated primary normal human leukocytes as compared to CBX-treated human leukemic cell lines U937, HL60 and THP1.

MLL-AF9 leukemia [8] = assay: MLL-AF9 leukemia in non-irradiated mice, intraperitoneal CBX with or w/o chemotherapy (survival, IVIS, flow cytometry); assay type: in vivo, mouse
Description: Chemo: cytarabine (100 mg/kg) and doxorubicin (3 mg/kg) to the subject for a period of 3 days, followed by administering cytarabine alone (100 mg/kg) to the subject for a period of 2 days.
Leukemia was induced in mice by intravenously injecting 1 million live MLL-AF9 leukemic cells (expressing GFP and luciferase) into non-irradiated recipients.
We first studied the immediate response of AML cells to induction chemotherapy in a mouse model of human MLL-AF9 leukemia. MLL-AF9 is a fusion protein, encoded by the t(9; 11)(p22; q23) translocation (Krivtsov, et al. 2006 and Sykes, et al., Cell 146, 697-708 (2011)), present in leukemic blasts derived from patients with AML and is associated with poor prognosis (Schoch, et al., Blood 102, 2395-402 (2003)). In order to generate primary MLL-AF9 leukemic cells for our experiments, we introduced the MLL-AF9 oncogene via retroviral transduction into lineage depleted bone marrow cells from B6.SJL mice, as depicted in FIG. 1A. Sorted GFP positive cells were then intravenously injected into sub-lethally irradiated C57B16 recipients and MLL-AF9 GFP-positive leukemic cells were harvested 3 months later, at a terminal stage of disease. In order to synchronize the timing of the treatment and to visualize disease progression, we transduced primary MLL-AF9 GFP-positive cells with Luciferase lentivirus. Then, we selected Luciferase expressing cells with antibiotics and transplanted 1 million double positive leukemic cells into non-irradiated recipients and monitored disease progression by whole body bioluminescence imaging (FIGS. 1A and 1B).
1 week after treatment, mice were imaged and then sacrificed to evaluate treatment outcome.

MLL-AF9 leukemia [9] = test system: MLL-AF9 leukemia; set-up: autopsy finding: dose or concentration left out as unconfirmed
gap junctions = conditions: 100 μM; cited from earlier work
[10] = CBX at greater than or equal to 100 μM, 16 hours
[11] = 75 mg/kg CBX in combination with chemotherapy

Q: For `CC1(C)[C@@H](OC(=O)CCC(=O)O)CC[C@]2(C)[C@H]3C(=O)C=C4[C@@H]5C[C@@](C)(C(=O)O)CC[C@]5(C)CC[C@@]4(C)[C@]3(C)CC[C@@H]12` [CBX, Carbenoxolone], which cells eradicated (MLL-AF9 cells; 1001 μM CBX for 16 hours, CBX alone) is on record?
A: ~20%

Q: And the “eradication of MLL-AF9 leukemia” value (MLL-AF9 cells; [10])?
A: eradication of MLL-AF9 leukemia

Q: And the MLL-AF9 cell death (MLL-AF9 cells; CBX, 16 hours)?
A: ~70%

Q: And the “eradication of MLL-AF9 cells in 1:1 mixture with normal BM leukocytes” value (MLL-AF9 cells; increasing CBX up to 400 μM, 16 hours)?
A: selectively eradicates

Q: And the “cytotoxic effects on normal cells” value [1]?
A: no cytotoxic effects

Q: And the “effect on normal BM leukocytes in 1:1 mixture with MLL-AF9” value ([1]; CBX as high as 400 μM, 16 hours)?
A: without affecting the normal cells

Q: And the “eradication of normal blood cells” value [1, 10]?
A: not the eradication of normal blood cells

Q: And the “sensitivity of wild type primary leukocytes from BM or PB” value ([1]; CBX even at high concentration, 16 hours)?
A: not sensitive

Q: What about the “effect on normal counterparts in 1:1 mixtures with different AML cells” value ([1]; 16 hours) of the same compound?
A: without affecting normal cells; also recorded: without affecting non-leukemic normal counterparts

Q: What about the “effect on normal counterparts in 1:1 mixtures with different AML cells” value ([1]; 16 hours, listed as carbenoxolone) of the same compound?
A: without affecting non-leukemic normal counterparts

Q: And the “effect on normal stem cells (CFU-C)” value [2]?
A: inducing proliferation of normal stem cells

Q: And the “toxicity to MLL-AF9 cells” value (primary MLL-AF9 cells)?
A: not toxic to the cells

Q: And the “differentiation of MLL-AF9 cells” value (primary MLL-AF9 cells)?
A: induces their differentiation into mature granulocytes

Q: What about the “differentiation of MLL-AF9 cells” value (primary MLL-AF9 cells; listed as carbenoxolone) of the same compound?
A: promotes differentiation of AML cells into short-lived granulocytes

Q: And the “neutrophil differentiation (CD66b+/CD14−)” value [3]?
A: does not induce neutrophil differentiation

Q: What about the “effect on human leukemic progenitors (CFU-C)” value ([4]; CBX 100 μM) of the same compound?
A: eradicates human leukemic progenitors

Q: And the “effect on human leukemic cancer stem and progenitor cells (CFU-C)” value ([4]; increasing concentrations)?
A: eradicates human leukemic cancer stem and progenitor cells

Q: And the “effect on normal progenitors (CFU-C)” value ([5]; CBX 100 μM)?
A: induces proliferation of normal progenitors

Q: And the “effect on normal human stem and progenitor cells (CFU-C)” value ([5]; increasing concentrations)?
A: inducing proliferation of normal human stem and progenitor cells

Q: What about the “replenishment of normal healthy cells” value [6] of the same compound?
A: enhances the replenishment of normal healthy cells

Q: And the Mac1 expression [7]?
A: downregulated

Q: What about the “leukemia status 1 week after treatment (luciferase imaging, flow cytometry)” value (MLL-AF9 leukemia [8]; 25 mg/kg CBX 24 hours before and throughout 5-days induction chemotherapy) of the same compound?
A: entirely leukemia free

Q: What about the survival (MLL-AF9 leukemia [8]; Carbenoxolone 20 mg/kg in combination with chemotherapy, from Day 27) of the same compound?
A: prolonged survival

Q: And the survival (MLL-AF9 leukemia [8]; Carbenoxolone alone, 20 mg/kg 3 or 6 days from Day 27, or 10/20/30 mg/kg ascending from Day 68)?
A: prolonged survival

Q: And the survival (MLL-AF9 leukemia [8]; IP, 20 mg/kg for 6 days from day 27 (with chemo arm) or 10/20/30 mg/kg ascending from day 68)?
A: prolonged survival

Q: And the survival (MLL-AF9 leukemia [8]; IP, 50 mg/kg 6 days beginning at day 27)?
A: prolonged survival

Q: And the CBX-treated mice survived (MLL-AF9 leukemia [9]; 25 mg/kg CBX alone or in combination with induction chemotherapy)?
A: 40%-60%

Q: And the “survival vs PBS and chemotherapy controls” value (MLL-AF9 leukemia [9]; 25 mg/kg CBX in combination with induction chemotherapy)?
A: no statistically significant difference in survival

Q: And the CBX-treated mice survived (MLL-AF9 leukemia [9]; 50 mg/kg CBX alone)?
A: 20%

Q: And the survival (MLL-AF9 leukemia [9]; 50 mg/kg CBX alone)?
A: early mortality with no statistically significant difference

Q: And the “survival vs PBS and chemotherapy controls” value (MLL-AF9 leukemia [9]; 50 mg/kg CBX in combination with chemotherapy)?
A: significant increased survival

Q: What about the “survival vs PBS controls” value (MLL-AF9 leukemia [9]; 75 mg/kg CBX alone) of the same compound?
A: significant increased survival

Q: What about the CBX-treated mice survived (MLL-AF9 leukemia [9]; [11]) of the same compound?
A: 20%

Q: What about the survival (MLL-AF9 leukemia [9]; [11]) of the same compound?
A: early mortality with no statistically significant difference

Q: What about the “adverse effect of prolonged administration” value (MLL-AF9 leukemia [9]; SC, daily, 14 days) of the same compound?
A: lethal pseudo-hyperadlosteronism with no sign of leukemia

Q: What about the “autopsy, signs of leukemia” value (MLL-AF9 leukemia [9]; chemotherapy plus 50 mg/kg CBX) of the same compound?
A: no signs of leukemia

Q: And the autopsy finding (MLL-AF9 leukemia [9]; mouse that died at day 28 after CBX treatment)?
A: gastric edema

Q: And the “adverse effect of chronic systemic exposure” value (MLL-AF9 leukemia [9]; mouse, in vivo)?
A: acute lethal pseudo-hyperaldosteronism in some case

Q: What about the early mortality (MLL-AF9 leukemia [9]; mouse, in vivo) of the same compound?
A: early mortality due to acute lethal pseudo-hyperadlosteronism

Q: And the “cause of early mortality” value (MLL-AF9 leukemia [9]; mouse, in vivo, sc)?
A: most likely induced by acute pseudo-hyperaldosteronism, and not by leukemia

Q: What about the survival (MLL-AF9 leukemia [9]; mouse, in vivo, sc, 50 mg/kg) of the same compound?
A: prolonged survival

Q: And the survival (MLL-AF9 leukemia [9]; mouse, in vivo, sc, 75 mg/kg)?
A: prolonged survival

Q: What about the “block of cell-cell communication” value (gap junctions) of the same compound?
A: efficiently blocks cell-cell communication

Q: And the cell viability (gap junctions)?
A: without affecting cell viability
